The record followed here is ChEMBL document CHEMBL3886455, “Aminoindane derivatives, pharmaceutical compositions containing them, and their use in therapy” (2016).

Usually Ki stands for a dissociation constant, usually derived from enzyme kinetics or from competition with a known ligand.

The experiment has as its target T1, Sodium- and chloride-dependent glycine transporter 1 (Homo sapiens, UniProt P48067).
T1 sequence (P48067 whole entry): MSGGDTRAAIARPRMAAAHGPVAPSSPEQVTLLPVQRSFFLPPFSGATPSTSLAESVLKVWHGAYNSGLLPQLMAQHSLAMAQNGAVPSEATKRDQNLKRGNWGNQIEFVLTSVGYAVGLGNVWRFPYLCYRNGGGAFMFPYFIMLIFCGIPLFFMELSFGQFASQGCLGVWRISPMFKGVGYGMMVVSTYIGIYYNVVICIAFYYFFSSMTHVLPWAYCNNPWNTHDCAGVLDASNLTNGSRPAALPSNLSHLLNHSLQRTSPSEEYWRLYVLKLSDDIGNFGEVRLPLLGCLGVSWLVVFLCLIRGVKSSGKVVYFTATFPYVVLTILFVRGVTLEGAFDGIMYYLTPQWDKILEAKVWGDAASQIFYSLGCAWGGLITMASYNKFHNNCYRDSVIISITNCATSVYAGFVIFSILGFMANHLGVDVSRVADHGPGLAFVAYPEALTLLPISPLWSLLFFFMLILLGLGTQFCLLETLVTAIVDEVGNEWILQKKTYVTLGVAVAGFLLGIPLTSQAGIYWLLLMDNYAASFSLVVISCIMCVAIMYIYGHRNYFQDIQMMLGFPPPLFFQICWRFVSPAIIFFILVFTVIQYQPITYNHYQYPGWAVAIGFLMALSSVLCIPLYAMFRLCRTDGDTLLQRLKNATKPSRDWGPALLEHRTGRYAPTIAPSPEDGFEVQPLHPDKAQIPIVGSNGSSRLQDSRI
The experiment is described as follows: Radioligand Binding Assay: Radioligand binding to human GlyT1c transporter-expressing membranes was determined as described in Mezler et al., Molecular Pharmacology 74:1705-1715, 2008.

For `Cn1cnc(S(=O)(=O)NCc2cc3c(cc2F)C[C@@H](N)[C@H]3Cc2ccccc2)c1` (relative stereo), the Ki is less than 10 nM.
